The results in this text go back to patent publication US7902240B2, “Substituted pyrazole and triazole compounds as KSP inhibitors” (Novartis AG, priority 2006, dated 2011).

Molecules are shown by their SMILES. pIC50: −log10 of the molar value. Values joined by “and” are separate entries in the source; they are usually repeats but may differ in a detail not shown here. Identical values can stand only once.

The experiment has as its target T1, motor domain of human KSP (Eg 5, KNSL1) (Homo sapiens, UniProt P52732).
T1 construct: KSP motor protein (i.e., the KSP motor domain); made in house
T1 sequence (P52732 18-359 limits assumed): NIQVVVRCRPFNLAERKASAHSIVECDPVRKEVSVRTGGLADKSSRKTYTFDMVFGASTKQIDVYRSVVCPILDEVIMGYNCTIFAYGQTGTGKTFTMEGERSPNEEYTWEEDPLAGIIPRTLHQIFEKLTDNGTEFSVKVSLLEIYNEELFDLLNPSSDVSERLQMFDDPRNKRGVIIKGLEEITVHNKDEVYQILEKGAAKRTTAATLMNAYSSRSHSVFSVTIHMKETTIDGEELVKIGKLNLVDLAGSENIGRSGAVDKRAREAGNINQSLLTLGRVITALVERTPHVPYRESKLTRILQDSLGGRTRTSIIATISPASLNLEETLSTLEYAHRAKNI
Put plainly: Assay for determining KSP activity (microtubule-stimulated ATPase, Biomol Green). Conditions: KSP motor domain 45 nM, microtubules 35 μg/mL, ATP, 1 hour RT, absorbance at 630 nm. The experiment is classed as biochemical. An excerpt:
This example provides a representative in vitro assay for determining KSP activity in vitro. Purified microtubules obtained from bovine brain were purchased from Cytoskeleton Inc. (Denver, Colo., USA). The motor domain of human KSP (Eg 5, KNSL1) was cloned, expressed, and purified to greater than 95% homogeneity. Biomol Green was purchased from Affinity Research Products Ltd. (Matford Court, Exeter, Devon, United Kingdom). Microtubules and KSP motor protein (i.e., the KSP motor domain) were diluted in assay buffer (20 mM Tris-HCl (pH 7.5), 1 mM MgCl2, 10 mM DTT and 0.25 mg/mL BSA) to a final concentration of 35 μg/mL microtubules and 45 nM KSP. The microtubule/KSP mixture was then pre-incubated at 37° C. for 10 min to promote the binding of KSP to microtubules.
To each well of the testing plate (384-well plate) containing 1.25 μL of inhibitor or test compound in DMSO (or DMSO only in the case of controls) were added 25 μL of ATP solution (ATP diluted to a concentration of 300 μM in assay buffer) and 25 μL of the above-described microtubule/KSP solution. The plates were incubated at RT for 1 hour. Following incubation, 65 μL of Biomol Green (a malachite green-based dye that detects the release of inorganic phosphate) was added to each well. The plates were incubated for an additional 5-10 minutes then the absorbance at 630 nm was determined using a Victor II plate reader. The amount of absorbance at 630 nm corresponded to the amount of KSP activity in the samples. The IC50 of each inhibitor or test compound was then determined based on the decrease in absorbance at 630 nm at each concentration, via nonlinear regression using either XLFit for Excel or Prism data analysis software by GraphPad Software Inc.
Take `C[C@H](O)C(=O)N(CC[C@H](N)CF)[C@@H](c1nc(-c2cc(Cl)cc(Cl)c2)nn1Cc1ccccc1)C(C)(C)C` [Compound 71, (S)-N-((S)-3-amino-4-fluorobutyl)-N-((R)-1-(1-benzyl-3-(3,5-dichlorophenyl)-1H-1,2,4-triazol-5-yl)-2,2-dimethylpropyl)-2-hydroxypropanamide]: the pIC50 (as a rule, −log10 of the IC50, conventionally taken in molar units) is under 6.00. As for `C[C@H](O)C(=O)N(CC[C@@H](N)C(F)F)[C@@H](c1nc(-c2cc(F)ccc2F)nn1Cc1cccc(C(F)(F)F)c1)C(C)(C)C` [Compound 78, (S)-N-((R)-3-amino-4,4-difluorobutyl)-N-((R)-1-(3-(2,5-difluorophenyl)-1-(3-(trifluoromethyl)benzyl)-1H-1,2,4-triazol-5-yl)-2,2-dimethylpropyl)-2-hydroxypropanamide], the pIC50 was < 7.00 and ≥ 6.00. As for `C[C@H](O)C(=O)N(CC[C@H](N)C(F)F)[C@@H](c1nc(-c2cc(F)ccc2F)nn1Cc1cccc(C(F)(F)F)c1)C(C)(C)C` [Compound 80, (S)-N-((S)-3-amino-4,4-difluorobutyl)-N-((R)-1-(3-(2,5-difluorophenyl)-1-(3-(trifluoromethyl)benzyl)-1H-1,2,4-triazol-5-yl)-2,2-dimethylpropyl)-2-hydroxypropanamide], the figure is < 7.00 and ≥ 6.00; as for `CC(C)c1cccc(Cn2nc(-c3cc(F)ccc3F)nc2[C@H](N(CC[C@H](N)C(F)F)C(=O)[C@H](C)O)C(C)(C)C)c1` [Compound 85, (S)-N-((S)-3-amino-4,4-difluorobutyl)-N-((R)-1-(3-(2,5-difluorophenyl)-1-(3-isopropylbenzyl)-1H-1,2,4-triazol-5-yl)-2,2-dimethylpropyl)-2-hydroxypropanamide], under 6.00; as for `C[C@H](O)C(=O)N(CC[C@@H](N)C(F)F)[C@@H](c1nc(-c2cc(F)ccc2F)nn1Cc1cccc(C#N)c1)C(C)(C)C` [Compound 77, (S)-N-((R)-3-amino-4,4-difluorobutyl)-N-((R)-1-(1-(3-cyanobenzyl)-3-(2,5-difluorophenyl)-1H-1,2,4-triazol-5-yl)-2,2-dimethylpropyl)-2-hydroxypropanamide], < 7.00 and ≥ 6.00. Molecule `CC(C)c1cccc(Cn2nc(-c3cc(F)ccc3F)nc2[C@H](N(CC[C@@H](N)C(F)F)C(=O)[C@H](C)O)C(C)(C)C)c1` [Compound 86, (S)-N-((R)-3-amino-4,4-difluorobutyl)-N-((R)-1-(3-(2,5-difluorophenyl)-1-(3-isopropylbenzyl)-1H-1,2,4-triazol-5-yl)-2,2-dimethylpropyl)-2-hydroxypropanamide] gave a pIC50 of under 6.00. `Cc1cccc(Cn2nc(-c3cc(F)ccc3F)nc2[C@H](N(CC[C@H](N)C(F)F)C(=O)[C@H](C)O)C(C)(C)C)c1` [Compound 79, (S)-N-((S)-3-amino-4,4-difluorobutyl)-N-((R)-1-(3-(2,5-difluorophenyl)-1-(3-methylbenzyl)-1H-1,2,4-triazol-5-yl)-2,2-dimethylpropyl)-2-hydroxypropanamide] showed a pIC50 of at least 7.00.
